Structures can show the parent of a compound that is named as a salt. Where two headings read alike, the source gives them in different places.
Experiments:
[1] = biological target: T1, rat cerebral neuronal membranes (histamine H1 binding sites) (Rattus norvegicus, UniProt P31390); assay: Competitive displacement of [^3H]pyrilamine binding, rat cerebral neuronal membranes; details: for displacement of specific [^3H]pyrilamine binding (in words): rat cerebral neuronal membranes, 20 nM [^3H]pyrilamine
T1 construct: native receptors contained in rat cerebral neuronal membranes; from tissue; host or cells: cerebral tissue of male Wistar rats, membrane fraction (40,000 x g pellet)

[2] = biological target: T2, synthesized WT-HRH1 proteoglycerosomes (Homo sapiens, UniProt P35367); assay: biochemical
Description: (§1) Eight different concentrations of each cold competitor were used in the competitive binding studies. […] The data are based on experiments performed in triplicate. The experimental conditions were the same as those used in the saturation studies.

[3] = biological target: T2, synthesized WT-HRH1 proteoglycerosomes
Description: as §1

T2 sequence (P35367 whole entry): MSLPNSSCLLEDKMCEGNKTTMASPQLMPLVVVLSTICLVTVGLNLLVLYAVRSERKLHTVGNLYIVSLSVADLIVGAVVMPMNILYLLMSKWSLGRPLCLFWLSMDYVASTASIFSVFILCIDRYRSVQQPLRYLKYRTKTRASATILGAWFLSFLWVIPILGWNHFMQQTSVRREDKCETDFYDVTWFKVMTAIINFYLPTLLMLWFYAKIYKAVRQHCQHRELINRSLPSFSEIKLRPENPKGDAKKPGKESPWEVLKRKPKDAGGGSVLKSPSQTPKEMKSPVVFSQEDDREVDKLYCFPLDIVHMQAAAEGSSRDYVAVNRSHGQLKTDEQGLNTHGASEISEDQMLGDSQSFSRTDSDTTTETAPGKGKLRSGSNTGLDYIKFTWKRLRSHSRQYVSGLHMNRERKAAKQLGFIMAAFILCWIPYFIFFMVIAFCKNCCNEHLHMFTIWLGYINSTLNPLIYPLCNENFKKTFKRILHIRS
T1 sequence (P31390 whole entry): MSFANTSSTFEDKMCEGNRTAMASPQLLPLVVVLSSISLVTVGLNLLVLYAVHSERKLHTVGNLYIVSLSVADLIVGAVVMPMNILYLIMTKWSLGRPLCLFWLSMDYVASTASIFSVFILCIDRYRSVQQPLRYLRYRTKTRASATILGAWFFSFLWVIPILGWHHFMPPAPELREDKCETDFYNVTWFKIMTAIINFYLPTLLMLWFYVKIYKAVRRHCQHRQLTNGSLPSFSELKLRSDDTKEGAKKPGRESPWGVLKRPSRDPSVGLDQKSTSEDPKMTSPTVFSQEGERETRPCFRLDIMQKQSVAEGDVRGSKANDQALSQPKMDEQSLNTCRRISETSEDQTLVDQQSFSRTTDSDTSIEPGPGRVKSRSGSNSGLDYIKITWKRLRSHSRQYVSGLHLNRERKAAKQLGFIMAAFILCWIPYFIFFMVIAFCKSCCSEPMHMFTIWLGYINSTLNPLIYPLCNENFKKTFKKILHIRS

Structure (SMILES)	Ki [1] [pM]	displacement of specific [^3H]pyrilamine binding (in words) [1]	Ki [2] [pM]	displacement of specific [^3H]pyrilamine binding (in words) ([3]; synthesized receptors, 20 nM [^3H]pyrilamine)	displacement of specific [^3H]pyrilamine binding (in words) [3]
NC1=NCC2c3ccccc3Cc3ccccc3N12 (centres unmarked) [Epinastine, epinastine hydrochloride]	288 ± 61.5	concentration-dependent inhibition	332 ± 98.9	concentration-dependent inhibition	–
C[C@@H](N)Cc1cnc[nH]1 [alpha methylhistamine, alpha-methylhistamine]	–	did not inhibit	–	–	did not inhibit
S=C(NC1CCCCC1)N1CCC(c2cnc[nH]2)CC1 [thioperamide]	–	no displacement ability	–	–	no displacement ability

Source: article PMC5808195 (Frontiers in Pharmacology, 2018)
